The numbers were not newly measured in patent publication US7393954B2 (Reliable Biopharmaceutical Corporation, priority 2002, dated 2008), which cites them from elsewhere.

Data set [1] relates to chronic lymphocytic leukemia. The settings on record: result in words.
In another data set the test system is hairy cell leukemia. As to conditions: result in words.

Turning to `OC[C@H]1O[C@@H](n2cnc3c2N=CNC[C@H]3O)C[C@@H]1O` [Pentostatin], the “efficacy against chronic lymphocytic leukemia” value in data set [1] is on record as “effective”. For the same compound, the “efficacy in treatment of interferon-refractory hairy cell leukemia” value in the data set with hairy cell leukemia (interferon-refractory, approved agent) is “highly effective”. Besides, the “efficacy against hairy cell leukemia” value in the data set with hairy cell leukemia was “effective”.
